In one data set the target is T1, CYP3A4 (Homo sapiens, UniProt P08684).
T1 construct: assayed in human liver microsomes (0.02 mg/mL) with midazolam (15 μM) as a substrate; from tissue; host or cells: human liver microsomes
In words: Mechanism based inhibition of CYP3A4 assay (MBI 3A4). It counts as in vitro ADME. The following applies: 25 uM, hydroxy-midazolam formation after 30 min preincubation relative to 0 min, human liver microsomes. As for the experimental part:
After preincubation, the incubate is diluted 1:10 and the substrate midazolam is added for the main incubation (15 min). The main incubation is quenched with acetonitrile and the formation of hydroxy-midazolam is quantified via LC/MS-MS. The formation of hydroxy-midazolam from the 30 min preincubation relative to the formation from the 0 min preincubation is used as a readout. Values of less than 100% mean that the substrate midazolam is metabolized to a lower extent upon 30 min preincubation compared to 0 min preincubation. In general low effects upon 30 min preincubation are desired (corresponding to values close to 100%/not different to the values determined with water control).
Background: Liver microsomes are vesicles of endoplasmic reticulum, rich in cytochrome P450 enzymes.

For a further data set, the target named is T2, KRAS (G13D)::SOS1 (Homo sapiens, UniProt P01116, C118S/G13D).
T2 construct: KRAS (G13D) 1-169, N-terminal 6His-tag for purification, cleaved off; 6His-tag (N, cleaved yes); TEV cleavage site
Put plainly: KRAS::SOS1 AlphaScreen binding assay, KRAS G13D. How it is done: Low IC50 values in this assay setting are indicative of strong inhibition of protein-protein interaction between SOS1 and KRAS:
These assays measure the inhibitory effect of compounds on KRAS mutant protein-protein interactions using the Alpha Screen technology by Perkin Elmer.
For the chosen highest assay concentration of 100 μM, 150 nL of compound solution are transferred from a 10 mM DMSO compound stock solution. A series of eleven fivefold dilutions per compound are transferred to the assay plate, compound dilutions are tested in duplicates. DMSO are added as backfill to a total volume of 150 nL.
The assays run on a fully automated robotic system in a darkened room below 100 Lux. To 150 nl of compound dilution 10 μl of a mix including KRAS mutant protein, SOS1 (final assay concentrations see above) and GDP nucleotide (Sigma G7127; final assay concentration 10 μM) in assay buffer (1×PBS, 0.1% BSA, 0.05% Tween 20) are added into columns 1-24. […]
Plates are kept at room temperature in a darkened incubator. After an additional 60 minutes incubation time the signal is measured in a PerkinElmer Envision HTS Multilabel Reader using the AlphaScreen specs from PerkinElmer.
IC50 values are calculated and analyzed with Boehringer Ingelheim's MEGALAB IC50 application using a 4 parametric logistic model.

In data set [1] the test system is A375 cells (melanoma, wt, B-Raf mutant). In words: A375 CTG proliferation assay (120 h), negative control. In kind it is cell-based. The following applies: Homo sapiens, A-375, CellTiter-Glo, negative control cell line. How it is done: A375 cells (ATCC CRL-1619) are dispensed into 384-well plates, flat and clear bottom (Greiner, PNr. 781091) at a density of 300 cells per well in 60 μL DMEM (Sigma D6429)+10% Fetal Calf Serum (HyClone, PNr.: SH30084.03) and incubated at 37° C. in a CO2 incubator overnight. The next day, compounds (10 mM stock in DMSO) are added at logarithmic dose series using the HP Digital Dispenser D300 (Tecan), including DMSO controls. Plates are incubated for 120 h, and cell viability is measured using CellTiter-Glo luminescent cell viability reagent (Promega product code G7570). Viability (stated as percent of control) is defined as relative luminescence units RLU of each well divided by the RLU of cells in DMSO controls. IC50 values are determined from viability measurements by non-linear regression using a four-parameter model.
(In general: Cellular ATP, detected with luciferase, serves as a proxy for viable cell number.)

Data set [2] relates to MKN1 cells (gastric cancer, wt amplified). Put plainly: MKN1 CTG proliferation assay (120 h), assay 2. In kind it is cell-based. The following applies: Homo sapiens, MKN-1, CellTiter-Glo, 200 cells per well. How it is done:
(§1) MKN1 cells (JCRB0252) are dispensed into white 384-well plates, flat and white bottom (Corning Costar, PNr.: 3570) at a density of 400 cells per well in 50 μL RPMI 1640 (PAN-Biotech, PNr.: P04-18047)+10% FCS (HyClone, PNr.: SH30084.03) (assay 1) or into black 384-well plates, flat and clear bottom (Greiner, PNr. 781091) at a density of 200 cells per well in 60 μl RPMI-1640 (Gibco #A10491)+10% FCS (HyClone, PNr.: SH30084.03)+ PenStrep (Gibco, PNr. 15140-122) (assay 2). […] Compounds (10 mM stock in DMSO) are added at logarithmic dose series using the HP Digital Dispenser D300 (Tecan) (assay 1+2) or the ECHO acoustic liquid handler system (Beckman Coulter) (assay 3), including DMSO controls and normalizing for added DMSO. Plates are incubated for 120 h, and cell viability is measured using CellTiter-Glo luminescent cell viability reagent (Promega product code G7570). Viability (stated as percent of control) is defined as relative luminescence units RLU of each well divided by the RLU of cells in DMSO controls. IC50 values are determined from viability measurements by non-linear regression using a four-parameter model.

The test system of data set [3] is NCI-H358 cells (NSCLC, G12C). Put plainly: NCI-H358 CTG proliferation assay (120 h), assay 1. It counts as cell-based. The following applies: Homo sapiens, CellTiter-Glo, 96 well, 2000 cells per well. As for the experimental part:
NCI-1H358 cells (ATCC No. CRL-5807) are dispensed into white bottom opaque 96 well plates (Perkin Elmer cat no. 5680) at a density of 2000 cells per well in 100 μL RPM 1-1640 ATCC-Formulation (Gibco #A10491)+10% FCS (fetal calf serum) (assay 1) or into black 384-well plates, flat and clear bottom (Greiner, PNr. 781091) at a density of 200 cells per well in 60 μl RPMI-1640 ATCC-Formulation (Gibco #A10491)+10% FCS (fetal calf serum) (assay 2). […] Compounds (10 mM stock in DMSO) are added at logarithmic dose series using the HP Digital Dispenser D300 (Tecan) (assay 1) or the ECHO acoustic liquid handler system (Beckman Coulter) (assay 2), normalizing for added DMSO and including DMSO controls. For the TO time point measurement, untreated cells are analyzed at the time of compound addition. Plates are incubated for 120 h, and cell viability is measured using CellTiter-Glo luminescent cell viability reagent (Promega product code G7570). Viability (stated as percent of control) is defined as relative luminescence units RLU of each well divided by the RLU of cells in DMSO controls. IC50 values are determined from viability measurements by non-linear regression using a four-parameter model.

The test system of data set [4] is MKN1 cells (gastric cancer, wt amplified). Put plainly: MKN1 CTG proliferation assay (120 h), assay 1. In kind it is cell-based. To be noted: Homo sapiens, MKN-1, CellTiter-Glo, 400 cells per well. How it is done: as §1

These results are taken from patent publication US20250129096A1, “ANNULATED 2-AMINO-3-CYANO THIOPHENES AND DERIVATIVES FOR THE TREATMENT OF CANCER” (Boehringer Ingelheim Int'l GmbH Corp., priority 2021, published 2025).

T1 sequence (P08684 whole entry): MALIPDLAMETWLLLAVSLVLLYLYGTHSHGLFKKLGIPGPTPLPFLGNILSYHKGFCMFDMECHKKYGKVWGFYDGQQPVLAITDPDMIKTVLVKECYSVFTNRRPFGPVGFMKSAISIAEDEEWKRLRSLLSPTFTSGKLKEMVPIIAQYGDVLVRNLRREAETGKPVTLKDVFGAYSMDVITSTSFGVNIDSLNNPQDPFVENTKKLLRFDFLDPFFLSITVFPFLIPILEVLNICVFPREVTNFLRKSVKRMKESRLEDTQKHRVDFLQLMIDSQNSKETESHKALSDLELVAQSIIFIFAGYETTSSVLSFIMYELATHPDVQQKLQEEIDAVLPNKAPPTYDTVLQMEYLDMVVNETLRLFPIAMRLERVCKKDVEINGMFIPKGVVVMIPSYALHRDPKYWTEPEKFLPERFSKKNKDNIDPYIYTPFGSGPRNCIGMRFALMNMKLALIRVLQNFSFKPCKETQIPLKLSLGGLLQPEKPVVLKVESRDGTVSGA
T2 sequence (P01116 1-169 isoform P01116-2 G13D/C118S): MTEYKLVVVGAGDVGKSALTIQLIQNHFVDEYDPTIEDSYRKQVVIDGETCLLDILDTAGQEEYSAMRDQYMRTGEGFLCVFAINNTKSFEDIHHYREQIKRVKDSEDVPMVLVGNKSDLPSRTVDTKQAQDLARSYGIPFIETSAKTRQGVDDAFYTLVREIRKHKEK

The IC50 is the concentration needed to halve the response being measured. Low readings indicate inhibition by little substance, high ones a need for much substance. As for `C[C@H]1CNCCCN1c1nccc(-c2onc3c2CCC[C@@]32CCCc3sc(N)c(C#N)c32)n1` [If-1], the “MBI 3A4” value on CYP3A4 was 60%. On KRAS (G13D)::SOS1, this compound returned an IC50 of 932 nM.

Regarding `C[C@H]1CNCCN1c1nccc(-c2noc3c2CCC[C@@]32CCCc3sc(N)c(C#N)c32)n1` [IIf-1], the IC50 in data set [1] was above 3000 nM; in data set [2], 2350 nM; in data set [3], 831 nM; in data set [4], 290 nM.

Consider `C[C@H](Oc1ccnc(-c2noc3c2CCC[C@@]32CCCc3sc(N)c(C#N)c32)n1)[C@@H]1CCCN1C` [IIb-3], for which the “MBI 3A4” value on CYP3A4 is reported as 69%.

At KRAS (G13D)::SOS1, `C[C@H]1[C@@H]2CCCN2CCCN1c1nccc(-c2onc3c2CCC[C@@]32CCCc3sc(N)c(C#N)c32)n1` [Id-1] returned an IC50 of 89 nM.

For the compound `C[C@H]1CNCCCN1c1nccc(-c2noc3c2CCC[C@@]32CCCc3sc(N)c(C#N)c32)n1` (single isomer, unassigned) [IIb-5], at CYP3A4, the “MBI 3A4” value was 65%.

`C[C@H](Oc1nccc(-c2onc3c2CCC[C@@]32CCCc3sc(N)c(C#N)c32)n1)[C@@H]1C[C@@H](F)CN1C` [Ie-2]: the IC50 in data set [2] came to 3460 nM.
